Columns and labels:
painful neuropathy = assay: Case report: type 1 diabetes patient with painful neuropathy treated with sildenafil; format: in vivo, human; settings: 50 mg/week single administration
Protocol: A patient had been suffering from diabetes mellitus, type 1, for about 35 years. Complications included a retinopathy and a painful neuropathy. Under intensified insulin therapy, blood glucose metabolism data were in a sub-optimum range (HbA1c around 8%). Thus, the patient suffered from a painful neuropathy and was treated unsuccessfully with various conventional medicaments.
Objectifiable diagnostic data were improved as well.

diabetic polyneuropathy = assay: Case report: type 2 diabetes patient with diabetic polyneuropathy treated with sildenafil; format: in vivo, human; settings: twelve months after start of therapy
Protocol: A patient had been suffering from diabetes mellitus, type 2, for 9 years. While blood glucose values (HbA1c between 6 and 7%) were good, symptoms of a diabetic polyneuropathy appeared, namely vibration sensing of 2/8, no filament sensing, and a reduced hot/cold differentiation. Because of a simultaneous erectile dysfunction they were treated with sildenafil in its commercially available preparation (tablets) at 50 mg/week in a single administration.
Subjectively, the patient noted disappearance of sensory misperceptions of temperature.

For `CCCc1nn(C)c2c(=O)[nH]c(-c3cc(S(=O)(=O)N4CCN(C)CC4)ccc3OCC)nc12` [sildenafil], the symptomatic pain (painful neuropathy; in the course of the following three months) was “lasting improvement”, the objectifiable diagnostic data (painful neuropathy; three months) was “improved” and the neurologic situation (diabetic polyneuropathy; 50 mg/week single administration (tablets)) was “largely normal”. For the same molecule, the “sensory misperceptions of temperature (subjective)” value (diabetic polyneuropathy; 50 mg/week) was “disappearance”, the vibration sensing (diabetic polyneuropathy; 50 mg/week, 2/8 before therapy) was 5/8 and the filament sensing (diabetic polyneuropathy; 50 mg/week, no filament sensing before therapy) was “intact”. For the same molecule, the hot/cold differentiation (diabetic polyneuropathy; 50 mg/week, reduced before therapy) was “intact”.

— US7338955B1, “Medicament for treatment of neuropathies” (Lilly ICOS LLC, priority 1999, dated 2008)
